According to US11352340B2, “Pyridine and pyridimine compounds as PI3K-gamma inhibitors” (Incyte Corporation, priority 2016, dated 2022):
Counter-ions that a name gives are not always drawn. Like-named read-outs stand apart in the source and are kept apart here.

What was measured:
[1] = tested on: Phosphorylated Ribosomal Protein S6 (RPS6) in THP-1 cells; assay: THP-1 RPS6 ELISA Assay; type: cell-based, Human; conditions: MCP-1 stimulated, phospho-RPS6 ELISA, read-out: THP p-RPS6 ELISA IC50
Method in brief: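 Phospho-RPS6 in lysates measured by ELISA at 450 nm, corrected at 540 nm, after MCP-1 challenge (10 nM, 15 min) of THP-1 cells that were starved overnight and exposed to test compound for 2 h at 37° C, 2×10^5 cells/well. Curve fit of percent inhibition gives IC50.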

[2] = biological target: PI3Kδ (p110δ/p85α) Recombinant Human Protein (Homo sapiens (Human), UniProt O00329); assay: PI3Kδ Scintillation Proximity Assay; type: biochemical; conditions: read-out: PI3K-delta SPA IC50
Sequence of PI3Kδ (p110δ/p85α) Recombinant Human Protein (O00329 whole entry): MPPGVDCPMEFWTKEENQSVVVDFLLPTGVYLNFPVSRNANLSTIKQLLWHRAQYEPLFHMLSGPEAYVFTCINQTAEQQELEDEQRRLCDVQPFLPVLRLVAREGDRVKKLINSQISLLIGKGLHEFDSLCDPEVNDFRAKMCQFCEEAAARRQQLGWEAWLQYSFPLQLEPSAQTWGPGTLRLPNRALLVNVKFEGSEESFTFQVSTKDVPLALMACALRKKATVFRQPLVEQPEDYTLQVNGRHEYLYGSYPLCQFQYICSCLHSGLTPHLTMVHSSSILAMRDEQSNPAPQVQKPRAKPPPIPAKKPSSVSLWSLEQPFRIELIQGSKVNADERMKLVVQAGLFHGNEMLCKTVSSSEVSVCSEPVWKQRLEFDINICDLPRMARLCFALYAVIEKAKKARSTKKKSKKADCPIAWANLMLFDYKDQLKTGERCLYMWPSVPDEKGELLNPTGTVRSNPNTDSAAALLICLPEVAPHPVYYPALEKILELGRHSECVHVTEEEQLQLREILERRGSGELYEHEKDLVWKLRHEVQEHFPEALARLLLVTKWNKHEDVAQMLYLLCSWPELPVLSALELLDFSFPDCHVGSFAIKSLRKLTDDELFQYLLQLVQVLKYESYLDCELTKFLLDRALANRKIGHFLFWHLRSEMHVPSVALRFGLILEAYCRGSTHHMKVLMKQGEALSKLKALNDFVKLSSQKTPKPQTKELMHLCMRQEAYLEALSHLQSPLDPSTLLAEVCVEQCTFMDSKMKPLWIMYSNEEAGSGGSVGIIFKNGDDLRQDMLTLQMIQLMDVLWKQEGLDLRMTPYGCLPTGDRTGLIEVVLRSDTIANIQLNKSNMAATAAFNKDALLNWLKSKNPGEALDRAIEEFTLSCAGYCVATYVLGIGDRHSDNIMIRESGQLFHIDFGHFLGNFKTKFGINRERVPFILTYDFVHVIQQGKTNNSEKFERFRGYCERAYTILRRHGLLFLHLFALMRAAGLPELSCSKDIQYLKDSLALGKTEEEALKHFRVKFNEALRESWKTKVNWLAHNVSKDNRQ
Sequence of PI3Kδ (p110δ/p85α) Recombinant Human Protein (P27986 whole entry partner): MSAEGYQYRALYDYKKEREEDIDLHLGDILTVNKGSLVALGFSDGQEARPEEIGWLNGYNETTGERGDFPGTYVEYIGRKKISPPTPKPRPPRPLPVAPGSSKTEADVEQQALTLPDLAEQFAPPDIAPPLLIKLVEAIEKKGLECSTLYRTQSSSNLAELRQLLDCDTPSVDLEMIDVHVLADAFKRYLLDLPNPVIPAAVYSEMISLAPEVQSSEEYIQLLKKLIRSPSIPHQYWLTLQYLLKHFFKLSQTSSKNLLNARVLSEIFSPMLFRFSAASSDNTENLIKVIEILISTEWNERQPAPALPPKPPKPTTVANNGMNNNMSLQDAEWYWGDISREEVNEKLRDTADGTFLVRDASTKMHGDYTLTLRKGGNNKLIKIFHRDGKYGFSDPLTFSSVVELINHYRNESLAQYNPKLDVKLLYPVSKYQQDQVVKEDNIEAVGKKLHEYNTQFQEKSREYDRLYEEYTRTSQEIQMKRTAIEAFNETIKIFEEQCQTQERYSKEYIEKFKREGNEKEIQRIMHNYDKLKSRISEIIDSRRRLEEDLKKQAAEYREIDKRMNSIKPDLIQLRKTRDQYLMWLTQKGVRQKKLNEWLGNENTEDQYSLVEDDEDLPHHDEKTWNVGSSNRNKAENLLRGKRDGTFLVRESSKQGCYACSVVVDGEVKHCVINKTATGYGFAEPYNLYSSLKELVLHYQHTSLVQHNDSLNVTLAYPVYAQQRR
Method in brief: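 Radiometric read-out: 33P-labelled PIP3 product captured on WGA SPA beads and counted, with IC50 fitted from percent activity relative to DMSO control. Enzyme (3.4 nM) was incubated 120 min at room temperature with 20 μM PIP2 and 2 μM ATP at pH 6.7, 2% DMSO.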

[3] = biological target: PI3Kγ (p110γ) Recombinant Human Protein (Homo sapiens (Human), UniProt P48736); assay: PI3K-γ Scintillation Proximity Assay; type: biochemical; conditions: read-out: PI3K-gamma SPA IC50
Sequence of PI3Kγ (p110γ) Recombinant Human Protein (P48736 whole entry): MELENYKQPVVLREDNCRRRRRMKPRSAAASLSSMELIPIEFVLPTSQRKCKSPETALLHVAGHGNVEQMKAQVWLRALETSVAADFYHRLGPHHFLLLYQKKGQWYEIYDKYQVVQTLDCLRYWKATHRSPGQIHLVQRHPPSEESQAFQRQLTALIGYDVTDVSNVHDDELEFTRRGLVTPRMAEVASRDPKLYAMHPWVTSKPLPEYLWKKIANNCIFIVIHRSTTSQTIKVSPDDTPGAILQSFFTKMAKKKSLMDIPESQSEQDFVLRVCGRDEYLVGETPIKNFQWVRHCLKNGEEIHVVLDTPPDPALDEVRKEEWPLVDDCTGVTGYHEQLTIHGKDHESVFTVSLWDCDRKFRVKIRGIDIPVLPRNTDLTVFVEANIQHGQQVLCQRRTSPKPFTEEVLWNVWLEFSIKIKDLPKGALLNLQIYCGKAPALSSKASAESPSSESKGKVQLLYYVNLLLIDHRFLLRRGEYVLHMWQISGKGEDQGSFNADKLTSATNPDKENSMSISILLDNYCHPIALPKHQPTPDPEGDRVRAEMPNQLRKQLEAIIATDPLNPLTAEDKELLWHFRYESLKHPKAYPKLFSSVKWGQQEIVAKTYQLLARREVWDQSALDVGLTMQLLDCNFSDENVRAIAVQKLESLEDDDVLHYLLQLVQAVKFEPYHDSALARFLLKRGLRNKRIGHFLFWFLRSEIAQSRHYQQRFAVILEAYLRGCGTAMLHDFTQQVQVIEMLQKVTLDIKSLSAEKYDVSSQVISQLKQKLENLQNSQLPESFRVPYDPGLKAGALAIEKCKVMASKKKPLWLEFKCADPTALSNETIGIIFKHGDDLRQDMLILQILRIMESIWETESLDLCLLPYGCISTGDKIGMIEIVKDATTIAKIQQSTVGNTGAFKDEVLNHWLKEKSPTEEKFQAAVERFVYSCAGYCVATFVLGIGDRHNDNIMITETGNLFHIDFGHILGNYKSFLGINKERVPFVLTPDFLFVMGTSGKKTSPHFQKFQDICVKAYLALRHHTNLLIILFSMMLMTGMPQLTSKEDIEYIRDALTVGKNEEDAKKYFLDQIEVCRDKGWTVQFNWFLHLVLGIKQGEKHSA
Method in brief: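 Radiometric SPA: reaction at room temperature for 120 min using 2 μM ATP with [γ-33P]ATP tracer, 20 μM PIP2 substrate and 13 nM human PI3Kγ (MOPS pH 6.7, MgCl2, DTT, CHAPS; 2% DMSO). EDTA quench with WGA beads, scintillation count, and IC50 fit of percent-of-control activity.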

Structure (SMILES)	IC50 ([1]; Homo sapiens)	IC50 [2]	IC50 [3]	IC50 [1]
Cc1[nH]c(-c2cc(-c3cncc(N4CCOCC4)c3)ccn2)nc1C(=O)N[C@H]1CCOC1 [Example 271, 5-Methyl-2-(5-morpholin-4-yl-3,4′-bipyridin-2′-yl)-N-[(3S)-tetrahydrofuran-3-yl]-1H-imidazole-4-carboxamide trifluoroacetate salt]	300 to 1000 nM	≤ 50 nM	≤ 50 nM	
Cc1[nH]c(-c2cc(-c3cncc(N4CCOCC4)c3)ccn2)nc1C(=O)NCc1ccccc1 [Example 272, N-Benzyl-5-methyl-2-(5-morpholin-4-yl-3,4′-bipyridin-2′-yl)-1H-imidazole-4-carboxamide trifluoroacetate salt]	≤ 300 nM	≤ 50 nM	≤ 50 nM	
Cc1[nH]c(-c2cc(-c3cncc(N4CCOCC4)c3)ccn2)nc1C(=O)N[C@@H](C)c1ccccc1 [Example 273, 5-Methyl-2-(5-morpholin-4-yl-3,4′-bipyridin-2′-yl)-N-[(1S)-1-phenylethyl]-1H-imidazole-4-carboxamide trifluoroacetate salt]	≤ 300 nM	≤ 50 nM	≤ 50 nM	
Cc1[nH]c(-c2cc(-c3cncc(N4CCOCC4)c3)ccn2)nc1C(=O)N[C@H](C)c1ccccc1 [Example 274, 5-Methyl-2-(5-morpholin-4-yl-3,4′-bipyridin-2′-yl)-N-[(1R)-1-phenylethyl]-1H-imidazole-4-carboxamide trifluoroacetate salt]	1000 to 5000 nM	≤ 50 nM	≤ 50 nM	
COC[C@H](NC(=O)c1nc(-c2cc(-c3cncc(N4CCOCC4)c3)ccn2)[nH]c1C)c1ccccc1 [Example 275, N-[(1R)-2-Methoxy-1-phenylethyl]-5-methyl-2-(5-morpholin-4-yl-3,4′-bipyridin-2′-yl) 1H-imidazole-4-carboxamide trifluoroacetate salt]		≤ 50 nM	≤ 50 nM	≤ 300 nM
COC[C@@H](NC(=O)c1nc(-c2cc(-c3cncc(N4CCOCC4)c3)ccn2)[nH]c1C)c1ccccc1 [Example 276, N-[(1S)-2-Methoxy-1-phenylethyl]-5-methyl-2-(5-morpholin-4-yl-3,4′-bipyridin-2′-yl) 1H-imidazole-4-carboxamide trifluoroacetate salt]		≤ 50 nM	≤ 100 nM	≤ 300 nM
Cc1[nH]c(-c2cc(-c3cncc(N4CCOCC4)c3)ccn2)nc1C(=O)NC1C2CC3CC(C2)CC1C3 (stereo not drawn) [Example 278, N-2-Adamantyl-5-methyl-2-(5-morpholin-4-yl-3,4′-bipyridin-2′-yl)-1H-imidazole-4-carboxamide trifluoroacetate salt]	300 to 1000 nM	≤ 50 nM	≤ 50 nM	
Cc1[nH]c(-c2cc(-c3cncc(N4CCOCC4)c3)ccn2)nc1C(=O)N[C@H]1CCN(Cc2ccccc2)C1 [Example 279, N-[(3S)-1-Benzylpyrrolidin-3-yl]-5-methyl-2-(5-morpholin-4-yl-3,4′-bipyridin-2′-yl)-1H-imidazole-4-carboxamide trifluoroacetate salt]	≤ 300 nM	≤ 50 nM	≤ 100 nM	
Cc1[nH]c(-c2cc(-c3cncc(N4CCOCC4)c3)ccn2)nc1C(=O)NC1CCSCC1 [Example 281, 5-Methyl-2-(5-morpholin-4-yl-3,4′-bipyridin-2′-yl)-N-(tetrahydro-2H-thiopyran-4-yl)-1H-imidazole-4-carboxamide trifluoroacetate salt]	≤ 300 nM	≤ 50 nM	≤ 50 nM	
Cc1[nH]c(-c2cc(-c3cncc(N4CCOCC4)c3)ccn2)nc1C(=O)NC1Cc2ccccc2C1 [Example 282, N-(2,3-Dihydro-1H-inden-2-yl)-5-methyl-2-(5-morpholin-4-yl-3,4′-bipyridin-2′-yl)-1H-imidazole-4-carboxamide trifluoroacetate salt]	300 to 1000 nM	≤ 50 nM	≤ 50 nM	
Cc1nc(-c2cc(-c3cnn(Cc4ccc(Cl)cc4)c3)ccn2)[nH]c1C [Example 294, 4-(1-(4-Chlorobenzyl)-1H-pyrazol-4-yl)-2-(4,5-dimethyl-1H-imidazol-2-yl)pyridine Trifluoroacetate Salt]	> 5000 nM	> 500 nM	≤ 50 nM	
Cc1[nH]c(-c2cc(-c3cnn(Cc4ccc(Cl)cc4)c3)ccn2)nc1C(=O)N[C@H]1CCOC1 [Example 295]	1000 to 5000 nM	≤ 500 nM	≤ 50 nM	
CNC(=O)c1nc(-c2cc(-c3cnn(Cc4ccc(Cl)cc4)c3)ccn2)[nH]c1C [Example 296]	> 5000 nM	> 500 nM	≤ 50 nM	
Cc1[nH]c(-c2cc(-c3cnn(Cc4ccc(Cl)cc4)c3)ccn2)nc1C#N [Example 297, 2-{4-[1-(4-Chlorobenzyl)-1H-pyrazol-4-yl]pyridin-2-yl}-5-methyl-1H-imidazole-4-carbonitrile Trifluoroacetate Salt]	> 5000 nM	> 500 nM	≤ 50 nM	
Cc1cnc(-c2cc(-c3cncc(S(=O)(=O)N[C@H]4CC[C@](C)(O)CC4)c3)ccn2)[nH]1 [Example 298, N-((1r,4r)-4-Hydroxy-4-methylcyclohexyl)-2′-(4-methyl-1H-imidazol-2-yl)-[3,4′-bipyridine]-5-sulfonamide Trifluoroacetate Salt]	≤ 300 nM	≤ 50 nM	≤ 50 nM	
Cc1c[nH]c(-c2cc(-c3cncc(S(=O)(=O)N[C@H]4CC[C@H](O)CC4)c3)ccn2)n1 [Example 299, N-((1r,4r)-4-Hydroxycyclohexyl)-2′-(4-methyl-1H-imidazol-2-yl)-[3,4′-bipyridine]-5-sulfonamide trifluoroacetate salt]		≤ 50 nM	≤ 50 nM	≤ 300 nM
